In patent US12077503B2, “Substituted cyclic amides and their use as herbicides” (FMC CORPORATION, priority 2015, dated 2024):

Assays:
Type in all cases: in vivo
Kochia (Kochia scoparia) [1] = test: Test A preemergence
How it was run: (§1)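 Visual injury, scored on a 0–100 scale relative to untreated controls, was recorded about 10 d after application. Treatments were a preemergence soil spray over planted seeds or a postemergence spray on plants at the one- to two-leaf stage, 2 to 10 cm tall, all in loam soil–sand blend in the greenhouse.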

[2] = tested on: barnyardgrass (Echinochloa crus-galli); test: Test A preemergence
How it was run: as §1

[3] = tested on: giant foxtail (Setaria faberii); test: Test A preemergence
How it was run: as §1

[4] = tested on: pigweed (Amaranthus retroflexus); test: Test A preemergence
[5] = tested on: ragweed (common ragweed, Ambrosia elatior); test: Test A preemergence
How it was run: as §1

[6] = tested on: ryegrass, Italian (Italian ryegrass, Lolium multiflorum); test: Test A preemergence
How it was run: as §1

[7] = tested on: Galium (catchweed bedstraw, Galium aparine); test: Test A postemergence
How it was run: as §1

Kochia (Kochia scoparia) [8] = test: Test A postemergence
How it was run: as §1

[9] = tested on: barnyardgrass (Echinochloa crus-galli); test: Test A postemergence
How it was run: as §1

[10] = tested on: blackgrass (Alopecurus myosuroides); test: Test A postemergence
How it was run: as §1

corn (Zea mays) = test: Test A postemergence
How it was run: as §1

[11] = tested on: giant foxtail (Setaria faberii); test: Test A postemergence
How it was run: as §1

[12] = tested on: pigweed (Amaranthus retroflexus); test: Test A postemergence
How it was run: as §1

[13] = tested on: ragweed (common ragweed, Ambrosia elatior); test: Test A postemergence
How it was run: as §1

[14] = tested on: ryegrass, Italian (Italian ryegrass, Lolium multiflorum); test: Test A postemergence
How it was run: as §1

[15] = tested on: wheat (Triticum aestivum); test: Test A postemergence
How it was run: as §1

[16] = tested on: barnyardgrass (Echinochloa crus-galli); test: Test B flooded paddy test; conditions: Flood, 250 g ai/ha; 0 to 100 scale where 0 is no effect and 100 is complete control; 13 to 15 d
How it was run: (§2)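 Response scored visually against untreated controls, 0 = no effect and 100 = complete control, 13–15 d after treatment in the greenhouse. Compounds added to paddy water held 3 cm above soil surface. Treatment given at 2-leaf stage.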

[17] = tested on: ducksalad (Heteranthera limosa); test: Test B flooded paddy test; conditions: Flood, 250 g ai/ha; 0 to 100 scale where 0 is no effect and 100 is complete control; 13 to 15 d
How it was run: as §2

rice (Oryra sativa) = test: Test B flooded paddy test; conditions: Flood, 250 g ai/ha; 0 to 100 scale where 0 is no effect and 100 is complete control; 13 to 15 d
How it was run: as §2

[18] = tested on: sedge, umbrella (small-flower umbrella sedge, Cyperus difformis); test: Test B flooded paddy test; conditions: Flood, 250 g ai/ha
How it was run: as §2

[19] = tested on: waterhemp (common waterhemp, Amaranthus rudis); test: Test C preemergence; conditions: for Plant response rating (scale of 0 to 100), Waterhemp: 0 is no effect, 100 is complete control; for Plant response rating, Waterhemp: scale 0 to 100, 0 no effect, 100 complete control
How it was run: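 Visual 0 (no effect) to 100 (complete control) ratings versus controls, taken 13–15 d after treatment in the greenhouse; dash means no result. Compounds in a surfactant-containing non-phytotoxic solvent blend were applied preemergence to seeds in loam-sand soil or postemergence to 1- to 4-leaf plants (2–18 cm) in peat-based medium.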

[20] = 125 g ai/ha, Preemergence, visual injury after approximately 10 d, 0 to 100 scale where 0 is no effect and 100 is complete control
[21] = 500 g ai/ha, preemergence, 0 to 100 scale, 0 = no effect, 100 = complete control
[22] = 125 g ai/ha, preemergence, visual rating after approx. 10 d, 0 to 100 scale where 0 is no effect and 100 is complete control
[23] = 125 g ai/ha, postemergence, visual injury after approximately 10 d, 0 to 100 scale (0 no effect, 100 complete control)
[24] = 500 g ai/ha, postemergence, visual injury, 0 to 100 scale (0 no effect, 100 complete control), approx. 10 d
[25] = 125 g ai/ha, postemergence, visual rating after approx. 10 d, 0 to 100 scale (0 no effect, 100 complete control)
[26] = Postemergence, 500 g ai/ha, 0 to 100 scale where 0 is no effect and 100 is complete control

CN1CC(c2ccc(C(C)(F)F)cc2)C(C(=O)Nc2cccc(F)c2F)C1=O (centres unmarked) [Compound 690]
Plant response rating, Kochia (Kochia (Kochia scoparia) [1]; [20]): 80 | Plant response rating, Kochia (Kochia (Kochia scoparia) [1]; [21]): 90 | Plant response rating, Barnyardgrass [2, 20]: 90 | Plant response rating, Barnyardgrass [2, 21]: 90 | Plant response rating, Foxtail, Giant [3, 20]: 90 | Plant response rating, Foxtail, Giant [3, 21]: 90 | Plant response rating, Pigweed [4, 22]: 80 | Plant response rating, Pigweed [4, 21]: 90 | Plant response rating, Ragweed [5, 22]: 70 | Plant response rating, Ragweed [5, 21]: 80 | Plant response rating, Ryegrass, Italian [6, 22]: 60 | Plant response rating, Ryegrass, Italian [6, 21]: 70 | Plant response rating, Galium [7, 23]: 70 | Plant response rating, Galium [7, 24]: 70 | Plant response rating, Kochia (Kochia (Kochia scoparia) [8]; [23]): 50 | Plant response rating, Kochia (Kochia (Kochia scoparia) [8]; [24]): 70 | Plant response rating, Barnyardgrass [9, 25]: 80 | Plant response rating, Barnyardgrass [9, 24]: 80 | Plant response rating, Blackgrass [10, 25]: 60 | Plant response rating, Blackgrass [10, 24]: 70 | Plant response rating, Corn (corn (Zea mays); [23]): 70 | Plant response rating, Corn (corn (Zea mays); [24]): 80 | Plant response rating, Foxtail, Giant [11, 23]: 80 | Plant response rating, Foxtail, Giant [11, 24]: 80 | Plant response rating, Pigweed [12, 23]: 60 | Plant response rating, Pigweed [12, 24]: 70 | Plant response rating, Ragweed [13, 23]: 60 | Plant response rating, Ragweed [13, 24]: 70 | Plant response rating, Ryegrass, Italian [14, 23]: 50 | Plant response rating, Ryegrass, Italian [14, 24]: 60 | Plant response rating, Wheat [15, 23]: 50 | Plant response rating, Wheat [15, 24]: 60 | Plant response rating, Barnyardgrass [16]: 50 | Plant response rating, Ducksalad [17]: 75 | Plant response rating, Rice (rice (Oryra sativa)): 0 | Sedge, Umbrella plant response rating ([18]; scale of 0 to 100 where 0 is no effect and 100 is complete control): 0 | Plant response rating (scale of 0 to 100), Waterhemp ([19]; 8 g ai/ha): 65 | Plant response rating (scale of 0 to 100), Waterhemp ([19]; 16 g ai/ha): 80 | Plant response rating (scale of 0 to 100), Waterhemp ([19]; 31 g ai/ha): 90 | Plant response rating, Waterhemp ([19]; 62 g ai/ha): 95

CN1CC(c2cccc(OC(F)F)c2)C(C(=O)Nc2cccc(F)c2F)C1=O (centres unmarked) [Compound 616]
Plant response rating, Kochia (Kochia (Kochia scoparia) [1]; [20]): 70 | Plant response rating, Kochia (Kochia (Kochia scoparia) [1]; [21]): 80 | Plant response rating, Barnyardgrass [2, 20]: 90 | Plant response rating, Barnyardgrass [2, 21]: 90 | Plant response rating, Foxtail, Giant [3, 20]: 90 | Plant response rating, Foxtail, Giant [3, 21]: 100 | Plant response rating, Pigweed [4, 20]: 80 | Plant response rating, Pigweed [4, 21]: 90 | Plant response rating, Ragweed [5, 20]: 80 | Plant response rating, Ragweed [5, 21]: 80 | Plant response rating, Ryegrass, Italian [6, 20]: 80 | Plant response rating, Ryegrass, Italian [6, 21]: 90 | Plant response rating, Galium [7, 25]: 60 | Plant response rating, Galium [7, 26]: 70 | Plant response rating, Kochia (Kochia (Kochia scoparia) [8]; [25]): 50 | Plant response rating, Kochia (Kochia (Kochia scoparia) [8]; [26]): 70 | Plant response rating, Barnyardgrass [9, 25]: 90 | Plant response rating, Barnyardgrass [9, 26]: 90 | Plant response rating, Blackgrass [10, 25]: 50 | Plant response rating, Blackgrass [10, 26]: 60 | Plant response rating, Corn (corn (Zea mays); [25]): 70 | Plant response rating, Corn (corn (Zea mays); [26]): 80 | Plant response rating, Foxtail, Giant [11, 25]: 90 | Plant response rating, Foxtail, Giant [11, 26]: 90 | Plant response rating, Pigweed [12, 25]: 40 | Plant response rating, Pigweed [12, 26]: 60 | Plant response rating, Ragweed [13, 25]: 0 | Plant response rating, Ragweed [13, 26]: 20 | Plant response rating, Ryegrass, Italian [14, 25]: 50 | Plant response rating, Ryegrass, Italian [14, 26]: 80 | Plant response rating, Wheat [15, 25]: 60 | Plant response rating, Wheat [15, 26]: 70 | Plant response rating, Barnyardgrass [16]: 70 | Plant response rating, Ducksalad [17]: 100 | Plant response rating, Rice (rice (Oryra sativa)): 10 | Plant response rating, Sedge, Umbrella ([18]; 0 to 100 scale where 0 is no effect and 100 is complete control, 13 to 15 d): 0 | Plant response rating (scale of 0 to 100), Waterhemp ([19]; 31 g ai/ha): 50 | Plant response rating, Waterhemp ([19]; 62 g ai/ha): 80 | Plant response rating, Waterhemp ([19]; 125 g ai/ha): 85 | Plant response rating, Waterhemp ([19]; 250 g ai/ha): 85
